In PMC4104029, “Mechanism of Action of Compound-13: An α1-Selective Small Molecule Activator of AMPK” (Chemistry & Biology, 2014):

Biological target: T1, muscle glycogen phosphorylase b (Mus musculus, UniProt Q9WUB3)
T1 construct: made in house; host or cells: E. coli
Test: Glycogen phosphorylase assay
Format: biochemical
Details: concentrations up to 100 μM; data not shown
From the text: Supplemental Experimental Procedures:
Materials. Compounds 2 and 13 were synthesised by PeakDale Molecular and Natalia Shpiro (MRC-PPU, Dundee), respectively, as described previously (Gomez-Galeno, et al., 2010).
A769662 was from Selleck Chemicals and AICAR from Toronto Research Chemicals. Mouse FBP1, PYGM and PFK1 (muscle isoform) were cloned, expressed and purified from E.coli using standard techniques. AMPD was purified from chicken muscle (Smiley, et al., 1967).
PP2Cα expressed in E.coli was from the Division of Signal Transduction Therapy (DSTT, Dundee). Peptides were synthesised by GL Biochem (Shanghai). [γ-32P]-ATP, [1-14C]-acetic acid and [9,10-3H(N)]-palmitic acid were from PerkinElmer. pS79 ACC1 (#3661), ACC1 […]
antibodies were purchased from Cell Signaling Technology. Anti-AMPKα1 (07-350) and AMPKα2 (07-363) used for immunoblotting were from Merck-Millipore. Anti-AMPKγ1 was from Origene (clone Y308). Anti-AMPKγ2 was from Epitomics (S1562). Anti-tubulin (B-5-1-2), anti-FLAG (F7425) and anti-FLAG M2 agarose were from Sigma. Anti-HA (HA.11) was from Covance Research Products. AMPKα1/2 antibodies used for immunoprecipitation kinase assays were described previously (Sakamoto, et al., 2006). […]
AMPK preparations. […] Isolated human AMPKα subunits were expressed as N-terminal GST-fusions in E.coli and activated as described for heterotrimeric complexes. […]

T1 sequence (Q9WUB3 whole entry): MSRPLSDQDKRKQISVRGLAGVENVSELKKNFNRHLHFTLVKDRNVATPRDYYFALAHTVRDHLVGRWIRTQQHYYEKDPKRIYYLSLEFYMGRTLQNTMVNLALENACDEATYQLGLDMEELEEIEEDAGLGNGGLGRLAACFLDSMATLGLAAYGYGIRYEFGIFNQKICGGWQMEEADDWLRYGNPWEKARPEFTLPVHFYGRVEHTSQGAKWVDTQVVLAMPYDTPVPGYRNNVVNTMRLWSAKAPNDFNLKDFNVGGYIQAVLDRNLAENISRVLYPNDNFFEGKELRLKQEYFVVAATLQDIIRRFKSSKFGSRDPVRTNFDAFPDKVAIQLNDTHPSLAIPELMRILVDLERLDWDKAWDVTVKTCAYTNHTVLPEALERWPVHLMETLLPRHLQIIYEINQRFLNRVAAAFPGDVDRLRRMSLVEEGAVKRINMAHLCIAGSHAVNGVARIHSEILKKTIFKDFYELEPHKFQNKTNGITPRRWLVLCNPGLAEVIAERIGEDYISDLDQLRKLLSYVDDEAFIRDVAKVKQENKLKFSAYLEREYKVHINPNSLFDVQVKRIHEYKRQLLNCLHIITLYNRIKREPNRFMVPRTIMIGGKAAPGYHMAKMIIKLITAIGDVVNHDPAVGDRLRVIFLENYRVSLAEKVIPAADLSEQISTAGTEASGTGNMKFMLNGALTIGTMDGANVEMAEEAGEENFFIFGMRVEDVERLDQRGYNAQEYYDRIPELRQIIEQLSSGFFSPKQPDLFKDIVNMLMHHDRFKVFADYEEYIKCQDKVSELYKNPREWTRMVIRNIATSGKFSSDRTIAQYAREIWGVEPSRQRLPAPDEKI

Structure (SMILES): O=P(O)(O)c1ccc(-c2cc(O)on2)o1 [Compound C2, 5-(5-hydroxyl-isoxazol-3-yl)-furan-2-phosphonic acid]
- effect on enzyme activity: None of these enzymes were affected
